Measured values as given in patent US12521393B2, “Cytotoxicity targeting chimeras for CCR2-expressing cells” (GLAXOSMITHKLINE INTELLECTUAL PROPERTY DEVELOPMENT LIMITED, priority 2021, dated 2026).

Columns and labels:
[1] = system: CCR2 expressing cells (CD11b+Ly6c+Hi) in peripheral blood; experiment: In vivo depletion assay, flow cytometry of peripheral blood (Example 201); design: species or system human CCR2 knock-in mice (C57 background); conditions: hCCR2 knock-in mice, IV 0.1 mpk compound + 10 mpk anti-cotinine antibody (SEQ ID NO: 13/14), peripheral blood at 48 hr
Method in brief: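 Flow cytometry of blood collected at study termination quantified percent depletion of CD11b+Ly6c+Hi cells and CCR2 expression, using surface markers CD45, CD3, CD11b, Ly6C, human CCR2 after Fc block, with 7AAD viability stain. Compound given in saline:DMSO:PBS formulation, optionally combined with anti-cotinine antibody, incubated 30 min before administration.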

[2] = biological target: anti-cotinine antibody (SEQ ID NO: 11/12, rabbit variable region with human IgG1 Fc DE mutation); experiment: SPR binding of anti-cotinine antibody to ARM compounds, Biacore T200, 37° C. (Example 202); conditions: SPR Biacore T200, 37° C., pH 7.4, antibody SEQ ID NO: 11/12 captured on protein A; Kd in molar
Method in brief: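 Run at 37 °C in 10 mM HEPES pH 7.4, 150 mM NaCl, 0.005% P20, 1% DMSO, with compounds titrated from 200 nM (five 3-fold steps) over protein A–captured antibody. A 1:1 kinetic model on double-referenced data gave rate constants, Kd as koff/kon and residence time 1/koff; results as pKd, run-averaged.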

[3] = system: endogenous target monocytes in human PBMC; experiment: PBMC ex vivo monocyte depletion flow cytometry assay (Example 200); format: cell-based; conditions: with anti-cotinine antibody (SEQ ID NO: 11/12), 18-24 hours, EC50 in molar, read-out: Ex Vivo Depletion Assay pEC50 (converted)
Method in brief: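 Monocyte depletion is reported as pEC50, averaged or given individually across runs, and read by flow cytometry staining CD45, CD14 and CD4 with a viability dye. Compounds, diluted four-fold over 11 points from 1 mM DMSO stocks, were combined with 30 μg/mL Fc-enhanced anti-cotinine antibody and human PBMC, then incubated 18-24 h at 37° C.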

Structure (SMILES) | % Depletion of CCR2 expressing cells [1] [%] | pKd of Antibody for ARM Compound of Formula (I) [2] | EC50 [3] [nM]
CN1C(=O)C[C@H](C(=O)NCCO[C@H]2CC[C@@H](OCCCC(=O)N[C@H]3CC[C@H](C(=O)N[C@@H]4C[C@H](NC(C)(C)C)CC[C@@H]4N4CC[C@H](Nc5ncnc6ccc(C(F)(F)F)cc56)C4=O)CC3)CC2)[C@H]1c1cccnc1 [Example 2, (2S,3S)-N-(2-(((1S,4R)-4-(4-(((1R,4R)-4-(((1R,2S,5R)-5-(tert-Butylamino)-2-((S)-2-oxo-3-((6-(trifluoromethyl)quinazolin-4-yl)amino)pyrrolidin-1-yl)cyclohexyl)carbamoyl)cyclohexyl)amino)-4-oxobutoxy)cyclohexyl)oxy)ethyl)-1-methyl-5-oxo-2-(pyridin-3-yl)pyrrolidine-3-carboxamide] | 92.3 | 9.4775 | 0.398
CC(C)N(C)[C@@H]1CC[C@H](N2CC[C@H](Nc3ncnc4ccc(C(F)(F)F)cc34)C2=O)[C@H](NC(=O)[C@H]2CC[C@@H](NC(=O)CCCO[C@H]3CC[C@@H](OCCNC(=O)[C@H]4CC(=O)N(C)[C@@H]4c4cccnc4)CC3)CC2)C1 [Example 3, (2S,3S)-N-(2-(((1S,4R)-4-(4-(((1S,4S)-4-(((1R,2S,5R)-5-(Isopropyl(methyl)amino)-2-((S)-2-oxo-3-((6-(trifluoromethyl)quinazolin-4-yl)amino)pyrrolidin-1-yl)cyclohexyl)carbamoyl)cyclohexyl)amino)-4-oxobutoxy)cyclohexyl)oxy)ethyl)-1-methyl-5-oxo-2-(pyridin-3-yl)pyrrolidine-3-carboxamide] | 87 | 9.2795 | 0.501
CC(C)N(C)[C@@H]1CC[C@H](N2CC[C@H](Nc3ncnc4ccc(C(F)(F)F)cc34)C2=O)[C@H](NC(=O)[C@H]2CC[C@H](NC(=O)CCCO[C@H]3CC[C@@H](OCCNC(=O)[C@H]4CC(=O)N(C)[C@@H]4c4cccnc4)CC3)CC2)C1 [Example 4, (2S,3S)-N-(2-(((1S,4R)-4-(4-(((1R,4R)-4-(((1R,2S,5R)-5-(Isopropyl(methyl)amino)-2-((S)-2-oxo-3-((6-(trifluoromethyl)quinazolin-4-yl)amino)pyrrolidin-1-yl)cyclohexyl)carbamoyl)cyclohexyl)amino)-4-oxobutoxy)cyclohexyl)oxy)ethyl)-1-methyl-5-oxo-2-(pyridin-3-yl)pyrrolidine-3-carboxamide] | 78.8 | 9.526 | 1
CC(C)N(C)[C@@H]1CC[C@H](N2CC[C@H](Nc3ncnc4ccc(C(F)(F)F)cc34)C2=O)[C@H](NC(=O)CCOCCNC(=O)CCCO[C@H]2CC[C@@H](OCCNC(=O)[C@H]3CC(=O)N(C)[C@@H]3c3cccnc3)CC2)C1 [Example 6, (2S,3S)-N-(2-(((1s,4R)-4-(4-((2-(3-(((1R,2S,5R)-5-(Isopropyl(methyl)amino)-2-((S)-2-oxo-3-((6-(trifluoromethyl)quinazolin-4-yl)amino)pyrrolidin-1-yl)cyclohexyl)amino)-3-oxopropoxy)ethyl)amino)-4-oxobutoxy)cyclohexyl)oxy)ethyl)-1-methyl-5-oxo-2-(pyridin-3-yl)pyrrolidine-3-carboxamide] | 82 | 9.282 | 0.2
CC(C)N(C)[C@@H]1CC[C@H](N2CC[C@H](Nc3ncnc4ccc(C(F)(F)F)cc34)C2=O)[C@H](NC(=O)[C@H]2CC[C@H](CNC(=O)CCCC(=O)NCCCOCCCNC(=O)[C@H]3CC(=O)N(C)[C@@H]3c3cccnc3)CC2)C1 [Example 20, N1-(((1R,4r)-4-(((1R,2S,5R)-5-(Isopropyl(methyl)amino)-2-((S)-2-oxo-3-((6-(trifluoromethyl)quinazolin-4-yl)amino)pyrrolidin-1-yl)cyclohexyl)carbamoyl)cyclohexyl)methyl)-N5-(3-(3-((2S,3S)-1-methyl-5-oxo-2-(pyridin-3-yl)pyrrolidine-3-carboxamido)propoxy)propyl)glutaramide] | 79 | 8.8705 | 0.316
CN1C(=O)C[C@H](C(=O)NCCOCCOCCOCCC(=O)N[C@H]2CC[C@H](C(=O)N[C@@H]3C[C@H](NC(C)(C)C)CC[C@@H]3N3CC[C@H](Nc4ncnc5ccc(C(F)(F)F)cc45)C3=O)CC2)[C@H]1c1cccnc1 [Example 31, (2S,3S)-N-(2-(2-(2-(3-(((1S,4s)-4-(((1R,2S,5R)-5-(tert-Butylamino)-2-((S)-2-oxo-3-((6-(trifluoromethyl)quinazolin-4-yl)amino)pyrrolidin-1-yl)cyclohexyl)carbamoyl)cyclohexyl)amino)-3-oxopropoxy)ethoxy)ethoxy)ethyl)-1-methyl-5-oxo-2-(pyridin-3-yl)pyrrolidine-3-carboxamide] | 94.9 | 9.3015 | 3.16
CC(C)N(C)[C@@H]1CC[C@H](N2CC[C@H](Nc3ncnc4ccc(C(F)(F)F)cc34)C2=O)[C@H](NC(=O)[C@H]2CC[C@H](CNC(=O)CCOCCOCCOCCNC(=O)[C@H]3CC(=O)N(C)[C@@H]3c3cccnc3)CC2)C1 [Example 32, (2S,3S)-N-(1-((1S,4s)-4-(((1R,2S,5R)-5-(Isopropyl(methyl)amino)-2-((S)-2-oxo-3-((6-(trifluoromethyl)quinazolin-4-yl)amino)pyrrolidin-1-yl)cyclohexyl)carbamoyl)cyclohexyl)-3-oxo-6,9,12-trioxa-2-azatetradecan-14-yl)-1-methyl-5-oxo-2-(pyridin-3-yl)pyrrolidine-3-carboxamide] | 83 | 9.1825 | 0.398
CC(C)N(C)[C@@H]1CC[C@H](N2CC[C@H](Nc3ncnc4ccc(C(F)(F)F)cc34)C2=O)[C@H](NC(=O)CCOCCNC(=O)CCOCCNC(=O)CCOCCNC(=O)[C@H]2CC(=O)N(C)[C@@H]2c2cccnc2)C1 [Example 46, (2S,3S)-N-(20-(((1R,2S,5R)-5-(Isopropyl(methyl)amino)-2-((S)-2-oxo-3-((6-(trifluoromethyl)quinazolin-4-yl)amino)pyrrolidin-1-yl)cyclohexyl)amino)-6,13,20-trioxo-3,10,17-trioxa-7,14-diazaicosyl)-1-methyl-5-oxo-2-(pyridin-3-yl)pyrrolidine-3-carboxamide] | 96 | 9.074 | 0.501
CC(C)N(C)[C@@H]1CC[C@H](N2CC[C@H](Nc3ncnc4ccc(C(F)(F)F)cc34)C2=O)[C@H](NC(=O)COCCNC(=O)CCOCCNC(=O)CCOCCNC(=O)[C@H]2CC(=O)N(C)[C@@H]2c2cccnc2)C1 [Example 47, (2S,3S)-N-(1-(((1R,2S,5R)-5-(Isopropyl(methyl)amino)-2-((S)-2-oxo-3-((6-(trifluoromethyl)quinazolin-4-yl)amino)pyrrolidin-1-yl)cyclohexyl)amino)-1,7,14-trioxo-3,10,17-trioxa-6,13-diazanonadecan-19-yl)-1-methyl-5-oxo-2-(pyridin-3-yl)pyrrolidine-3-carboxamide] | 73 | 9.051 | 0.316
CC(C)N(C)[C@@H]1CC[C@H](N2CC[C@H](Nc3ncnc4ccc(C(F)(F)F)cc34)C2=O)[C@H](NC(=O)[C@H]2C[C@@H](NC(=O)CCOC[C@H]3CC[C@H](COCCNC(=O)[C@H]4CC(=O)N(C)[C@@H]4c4cccnc4)CC3)C2)C1 [Example 55, (2S,3S)-N-(2-(((1S,4S)-4-((3-(((1S,3S)-3-(((1R,2S,5R)-5-(Isopropyl(methyl)amino)-2-((S)-2-oxo-3-((6-(trifluoromethyl)quinazolin-4-yl)amino)pyrrolidin-1-yl)cyclohexyl)carbamoyl)cyclobutyl)amino)-3-oxopropoxy)methyl)cyclohexyl)methoxy)ethyl)-1-methyl-5-oxo-2-(pyridin-3-yl)pyrrolidine-3-carboxamide] | 76.2 | 9.4085 | 0.126
CC(C)N(C)[C@@H]1CC[C@H](N2CC[C@H](Nc3ncnc4ccc(C(F)(F)F)cc34)C2=O)[C@H](NC(=O)[C@H]2CC[C@@H](NC(=O)CNC(=O)CCOCCOCCNC(=O)[C@H]3CC(=O)N(C)[C@@H]3c3cccnc3)CC2)C1 [Example 83, (2S,3S)-N-(2-(2-(3-((2-(((1S,4s)-4-(((1R,2S,5R)-5-(Isopropyl(methyl)amino)-2-((S)-2-oxo-3-((6-(trifluoromethyl)quinazolin-4-yl)amino)pyrrolidin-1-yl)cyclohexyl)carbamoyl)cyclohexyl)amino)-2-oxoethyl)amino)-3-oxopropoxy)ethoxy)ethyl)-1-methyl-5-oxo-2-(pyridin-3-yl)pyrrolidine-3-carboxamide] | 67 | 9.302 | –
